For the assay, the target named is T1, SpiCA3 (Stylophora pistillata, UniProt A0A1B0Y357).
T1 construct: gene CA3
T1 sequence (A0A1B0Y357 1-258): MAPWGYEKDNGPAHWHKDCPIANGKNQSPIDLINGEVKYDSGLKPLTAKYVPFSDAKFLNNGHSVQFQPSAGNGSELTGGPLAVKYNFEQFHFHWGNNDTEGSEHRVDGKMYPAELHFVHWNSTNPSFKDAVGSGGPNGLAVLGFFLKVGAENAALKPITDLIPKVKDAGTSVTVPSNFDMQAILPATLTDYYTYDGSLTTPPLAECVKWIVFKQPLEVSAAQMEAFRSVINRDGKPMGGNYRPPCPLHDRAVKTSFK
As to the kind of experiment: stopped-flow CO2 hydration, phenol red, Cheng-Prusoff. In kind it is biochemical.

Where [1] appears, read: read-out: KI [mM] ^# / SpiCA3 ^c.

This passage reports Ki results from PMC6073313, “Comparison of the Anion Inhibition Profiles of the α-CA Isoforms (SpiCA1, SpiCA2 and SpiCA3) from the Scleractinian Coral Stylophora pistillata” (International Journal of Molecular Sciences, 2018).

Structures are written as SMILES. Where two headings read alike, the source gives them in different places.

As for `N#C[SeH]` [SeCN^−], the Ki amounted to 0.15 mM.
The same measure, in the same setting: the result for `O=NO` [NO2^−] reads 0.45 mM; that for `O=C(O)O` [HCO3^−], 0.4 mM.
On to `NS(=O)(=O)O` [H2NSO3H], for which, under setting [1], the Ki was over 100 mM.
In the case of `OB(O)c1ccccc1` [Ph-B(OH)2], the Ki is over 100 mM.
`NS(N)(=O)=O` [H2NSO2NH2]: the Ki under setting [1] amounted to 0.0007 mM.
Take `I` [I^−]: the Ki came out at 0.56 mM.
As to `S=C(S)S` [CS3^2^−], under setting [1], the Ki was found to be 0.47 mM.
In turn, `S` [HS^−] registered a Ki of 0.34 mM.
On the same count and under the same terms, the result for `[N-]=[N+]=[N-]` [N3^−] reads 0.08 mM; that for `Cl` [Cl^−], 0.51 mM; that for `O=S(=O)(O)C(F)(F)F` [Triflate], 0.29 mM.
Take `CCN(CC)C(=S)S` [Et2NCS2^−]: the Ki under setting [1] came to 0.044 mM.
